Data: patent US7709451B2, “Method and composition for treating immune complex associated disorders” (Trustees of Boston University, priority 1997, dated 2010)
Entries after “also recorded” stand apart in the source; their conditions may differ.

Experiments:
AM14 RF+ B cells = assay: RF+ B cell proliferation (3[H]-thymidine incorporation); type: cell-based, mouse; conditions: for Inhibition of RF+ B cell response to mAb PL2-3 / chromatin-containing IC: FIGS. 5A-5C
Method: Cell culture and reagents. Spleen cell preparations were T-depleted and cultured with the appropriate ligands for 40-48 hrs. In some experiments, B cells were preincubated with CD40L as described (Rifkin, et al., J. Immunol. 165, 1626-1633 (2000)). Proliferation was assessed by ^3[H]-thymidine incorporation during the final 16 hours of culture. Data are presented as the mean percentage of the anti-IgM response from triplicate cultures. The percentage of the anti-IgM response was calculated according to the formula: [(cpm experimental condition−cpm CD40L alone)/(cpm anti-IgM−cpm CD40L alone)×100].
In some experiments, DNase I (type IV) (Sigma, St. Louis, Mo.), chloroquine (Sigma), concanamycin B, bafilomycin A (Sigma), or 12 μg/ml of the inhibitory CpG S-ODN 2008 (Lenart, et al., Antisense Nucleic Acid Drug Dev. 4, 247-256 (2001)) (Oligo's Etc.) were added to the cultures 15-30 min-2 hr before the addition of the ligands.

[1] = in vivo; cited from earlier work
RF+ MyD88−/− B cells = assay: Proliferation of RF+ MyD88-/- B cells; type: cell-based, mouse; conditions: FIG. 4C
Method: To investigate the potential role of TLRs in mediating RF+ B cell responses to autoantibody/autoantigen IC, we crossed the AM14 transgenes onto a MyD88−/− background (Adachi, et al., Immunity 9, 143-150 (1998)). B cells from RF− MyD88+/+ (wildtype), RF+ MyD88+/+, and RF+ MyD88−/− offspring, identified by a combination of PCR and FACS analysis (FIGS. 4A-4B), were assessed for their ability to respond to anti-IgM, CpG ODN, and LPS, as well as to a panel of anti-nucleosome mAbs and autoimmune sera.
Mice. […] Complement receptor genotype was determined by flow cytometry using the FITC-conjugated 7G6 antibody (Pharmingen, San Diego, Calif.). MyD88 genotype was determined by PCR using the primers: MyD88F (5′-TGGCATGCCTCCATCATAGTTAACC-3′) [SEQ ID NO: 1], MyD88R (5′-GTCAGAAACAACCACCACCATGC-3′) [SEQ ID NO: 2], and neoR (5′-ATCGCCTTCTATCGCCTTCTTGACG-3′) [SEQ ID NO: 3] […]
Cell culture and reagents. […] Proliferation was assessed by ^3[H]-thymidine incorporation during the final 16 hours of culture. […] The percentage of the anti-IgM response was calculated according to the formula: [(cpm experimental condition−cpm CD40L alone)/(cpm anti-IgM−cpm CD40L alone)×100].

[2] = tested on: CD11c positive dendritic cells from bone marrow of C57BL/6 mice; assay: Dendritic cell activation (TNF-α and IL-12 ELISA, CD86 flow cytometry); type: cell-based, mouse; conditions: for TNF-α in culture supernatants (ELISA): 48 hours
Method: Dendritic cells were generated from the bone marrow of C57BL/6 mice by in vitro culture with GM-CSF and IL-4 for 6 days. On day 6, the CD11c positive dendritic cells were isolated using magnetic beads (Miltenyi Biotec) and either pre-incubated, or not pre-incubated, for 30 minutes with ODN 2088, an inhibitory oligodeoxynucleotide that specifically blocks signaling through TLR9. The stimulatory ODN 1826 (CpG, 3 μg/ml), that specifically activates through TLR9, or lipopolysaccharide (LPS, 10 μg/ml), that activates through TLR4, or culture medium only (media), was then added to the cultures. After 48 hours, levels of TNF-α (8A) and IL-12 (8B) in the culture supernatants were measured by ELISA (results shown as OD units determined by absorption at 405 nm). After removal of the supernatants, cells were collected and analyzed by flow cytometry for expression of the co-stimulatory molecule CD86 (8c). Unstimulated refers to the level of expression of CD86 in the presence of media alone, whereas stimulated refers to the level of expression of CD86 in the presence of the stimulus (ODN 1826 or LPS).
Dendritic cells were generated from the bone marrow of C57BL/6 mice by in vitro culture with GM-CSF and IL-4 for 6 days. On day 6, the CD11c positive dendritic cells were isolated using magnetic beads (Miltenyi Biotec). The dendritic cells were then either pre-incubated, or not pre-incubated, for 30 minutes with ODN 2088 at 12 μg/ml. The stimulatory ODN 1826 (3 μg/ml), that specifically activates through TLR9, lipopolysaccharide (LPS, 10 μg/ml), that activates through TLR4, the anti-chromatin antibody PL2-3 (50 μg/ml), three different antibody/protein ratios of α-TNP/TNP-BSA immune complexes (50 μg/ml), or the culture medium only (media), was then added to the cultures. After 48 hours, levels of TNF-α in the culture supernatants was measured by ELISA (results shown as pg/ml; lower level of sensitivity of assay is 50 pg/ml). A representative experiment of 3 similar experiments is shown.
(§1) Dendritic cells were generated from the bone marrow of C57BL/6 wildtype mice and from C57BL/6 mice lacking the Fc receptor γ chain in by in vitro culture of the bone marrow cells with GM-CSF and IL-4 for 6 days. On day 6, the CD11c positive dendritic cells were isolated using magnetic beads. The stimulatory ODN 1826 (3 μg/ml), that specifically activates through TLR9, lipopolysaccharide (LPS, 10 μg/ml), the anti-chromatin antibodies PL2-3 (50 μg/ml; IgG2a) and PL2-8 (50 μg/ml; IgG2b), two different antibody/protein ratios of α-TNP/TNP-BSA immune complexes (50 μg/ml), or the culture medium only (media), was then added to the dendritic cell cultures. After 48 hours, levels of TNF-α in the culture supernatants was measured by ELISA (results shown as pg/ml; lower level of sensitivity of assay is 50 pg/ml). A representative experiment of 2 similar experiments is shown.

[3] = tested on: dendritic cells from C57BL/6 mice lacking the Fc receptor γ chain; assay: Dendritic cell TNF-α production, Fc receptor γ chain deficient mice; type: cell-based, mouse; conditions: Table 2, Fc receptor γ chain deficient dendritic cells; 48 hours
Method: as §1

[4] = Table 1, column 2088: pre-incubated 30 minutes with ODN 2088 at 12 μg/ml
[5] = Table 1, column None: no ODN 2088 pre-incubation, lower level of sensitivity 50 pg/ml
[6] = Table 2, wildtype C57BL/6 dendritic cells

Cl.N [ammonium chloride]
Inhibition of RF+ B cell response to mAb PL2-3 / chromatin-containing IC (AM14 RF+ B cells): inhibited

CO/C1=C\C(C)=C\[C@@H](C)[C@@H](O)[C@@H](C)C/C(C)=C/C=C/[C@H](OC)[C@@H]([C@@H](C)[C@@H](O)[C@H](C)[C@@]2(O)C[C@@H](O)[C@H](C)[C@@H](C(C)C)O2)OC1=O [bafilomycin A]
Inhibition of RF+ B cell response to mAb PL2-3 / chromatin-containing IC (AM14 RF+ B cells): inhibited

CCN(CC)CCCC(C)Nc1ccnc2cc(Cl)ccc12 (stereo not drawn) [chloroquine]
Inhibition of RF+ B cell response to mAb PL2-3 / chromatin-containing IC (AM14 RF+ B cells): completely blocked; also recorded: inhibited | Inhibition of proliferative response to stimulatory CpG S-ODN 1826 (AM14 RF+ B cells; TLR9 ligand): inhibited | Treatment of autoimmune diseases including rheumatoid arthritis and SLE [1]: effective treatment

C/C=C/[C@H]1O[C@@](O)([C@@H](C)[C@H](O)[C@H](C)[C@H]2OC(=O)/C(OC)=C/C(C)=C/[C@@H](C)[C@@H](O)[C@@H](CC)[C@@H](O)[C@H](C)C/C(C)=C/C=C/[C@@H]2OC)C[C@@H](O[C@H]2C[C@@H](O)[C@H](OC(N)=O)[C@@H](C)O2)[C@@H]1C [concanamycin A]
Inhibition of RF+ B cell response to mAb PL2-3 / chromatin-containing IC (AM14 RF+ B cells): completely blocked

C/C=C/[C@H]1O[C@@](O)([C@@H](C)[C@H](O)[C@H](C)[C@H]2OC(=O)/C(OC)=C/C(C)=C/[C@@H](C)[C@@H](O)[C@@H](C)[C@@H](O)[C@H](C)C/C(C)=C/C=C/[C@@H]2OC)C[C@@H](O[C@H]2C[C@@H](O)[C@H](OC(N)=O)[C@@H](C)O2)[C@@H]1C [concanamycin B]
Inhibition of RF+ B cell response to mAb PL2-3 / chromatin-containing IC (AM14 RF+ B cells): inhibited

DNase
Effect of DNase on RF+ B cell proliferative response to anti-nucleosome mAb PL2-3 or autoimmune serum (AM14 RF+ B cells; DNase added to assay medium (FIG. 1)): dramatically reduced | Effect of DNase on responses to F(ab')2 anti-IgM and LPS (AM14 RF+ B cells; FIG. 1, nonspecific toxicity control): unaffected

ODN 1826
Proliferative response of B cells from RF+ MyD88-deficient mice (RF+ MyD88−/− B cells): unable to respond | Cytokine production by dendritic cells ([2]; 3 μg/ml, 48 hours (FIGS. 8A, 8B)): induces TNF-α and IL-12 production | Co-stimulatory molecule (CD86) expression on dendritic cells ([2]; FIG. 8C): induces upregulation of co-stimulatory molecules | TNF-α in culture supernatants (ELISA) [2, 4]: <50 pg/mL | TNF-α in culture supernatants (ELISA) [2, 5]: 2347 pg/mL | TNF-α in culture supernatants (ELISA) [2, 6]: 7899 pg/mL | TNF-α in culture supernatants (ELISA) [3]: 2373 pg/mL

lipopolysaccharide [LPS]
Proliferative response of B cells from RF+ MyD88-deficient mice (RF+ MyD88−/− B cells): responded only weakly | TNF-α in culture supernatants (ELISA) [2, 4]: 2393 pg/mL | TNF-α in culture supernatants (ELISA) [2, 5]: 2514 pg/mL | TNF-α in culture supernatants (ELISA) [2, 6]: 7056 pg/mL | TNF-α in culture supernatants (ELISA) [3]: 3411 pg/mL
